Assay [1] has as its system Ian4−/− BBDP T cells. Put plainly: Mitochondrial membrane potential (Δψm) by MitoLight flow microfluorometry. Format: cell-based, rat. The conditions noted are these: control incubation with uncoupler, 50 μM, 15 minutes, 37° C.; positive control for dissipation of Δψm. As to the method:
Flat bottom 6-well culture plates (Falcon, Franklin Lakes, N.J.) were incubated with 10 μg/well anti-CD3 mAb, 10 μg/well anti-CD28 mAb, or both, in PBS at 4° C. After overnight incubation, plates were rinsed three times with PBS. Nylon wool-purified T cells were cultured in antibody-coated wells at 6×10^6 cells/well in 3 ml complete AIM-V media (AIM-V plus 55 μM 2-mercaptoethanol, Sigma) for 17, 40, or 68 hr in a humidified incubator at 37° C. with 5% CO2. Un-stimulated cells were incubated in complete AIM-V alone. Mitochondrial membrane potential (Δψm) of thymocytes and T cells was measured by two- or three-color flow microfluorometry using MitoLight™ (Chemicon, Temecula, Calif.) alone or in combination with biotin-conjugated anti-αβTCR mAb. Mitolight™ was employed according to the manufacturer's instructions. It is a lipophilic cation with a cellular distribution similar to that of JC-1. […] When the concentration of JC-1 reaches a threshold, it forms aggregate, causing a shift in its absorbed and emitted fluorescence (S. T. Smiley et al., Proc. Natl. Acad. Sci. U.S.A 88, 3671-3675 (1991)). […] For each experiment control and BBDP T cells were analyzed for both red and green fluorescence after Mitolight™ labeling. […] For each analysis, a minimum of 10,000 events was analyzed.

Assay [2] concerns Lymph node T cells from BBDP rats. Put plainly: Caspase inhibition, sub-diploid DNA. Format: cell-based, rat. The note with it: 17 hr of culture, varying concentrations. As to the method:
The percentage of T cells with sub-diploid DNA was measured as described (I. Nicoletti, G. Migliorati, M. C. Pagliacci, F. Grignani, C. Riccardi, J. Immunol. Methods 139, 271-279 (1991)). Briefly, freshly isolated or in vitro stimulated lymph node T cells were washed twice with PBS and centrifuged at 1500 rpm for 5 min. Pellets (2×10^6) were resuspended in 200 μl of PBS, fixed in 70% cold ethanol, and stored at 4° C. until used. At the time of analysis, cells were washed twice with PBS and incubated at 25° C. for 40 min in 500 μl of PBS containing 0.1% Triton X-100 and 50 μg of RNase (Boehringer Mannheim, Indianapolis, Ind.). Propidium iodide (10 μg, Sigma, St. Louis, Mo.) was added, and the suspension was incubated in the dark for 15 min. DNA content was determined by flow microfluorometry using a FACStarR® instrument (Becton Dickinson, San Jose, Calif.). Lymphoid cells were identified electronically by their forward and side light-scatter characteristics. For each analysis, a minimum of 10,000 events was analyzed.
Lymph node T cells from BBDP rats were prepared as described above and cultured in AIM-V medium in the presence or absence of varying concentrations of the caspase inhibitors Z-VAD-FMK, Z-VDVAD, Z-DEVD, D-IETD, and Z-LEHD obtained from R&D Systems (Minneapolis, Minn.). […] Cells were then harvested, and the percentage of cells with sub-diploid DNA was determined as above.

Where a SMILES comes first, the peptide text is derived from it. The star is where a group is joined. Cbz = O=C(OCc1ccccc1)*; CH2F = FC*

`N#CC(C#N)=NNc1cccc(Cl)c1` [CCCP, carbonyl cyanide m-chlorophenyl-hydrazone]: in assay [1], the “percentage of T cells with high Δψm” value is reported as around 4%.

Consider `COC(=O)C[C@H](NC(=O)[C@H](C)NC(=O)[C@@H](NC(=O)OCc1ccccc1)C(C)C)C(=O)CF` [Z-VAD-frnk] (Cbz-Val-Ala-Asp(OMe)-CH2F), for which the “apoptosis of Ian4−/− T cells (percentage of cells with sub-diploid DNA)” value in assay [2] is listed as “prevented apoptosis”.

(Values after patent US20050123571A1, “Modulation of apoptosis” (priority 2003, published 2005).)
